Data published in US20160033533A1, “2-HYDROXYGLUTARATE AS A BIOMARKER FOR CHRONIC HYPOXIA” (MEMORIAL SLOAN KETTERING CANCER CENTER, priority 2011, published 2016).

Test system: SF188 cells
Test: Viability of glutamine-starved hypoxic SF188 cells (trypan blue dye exclusion)
Format: cell-based, human
Conditions: 0.5% O2, 48 h, glutamine-deficient medium supplemented with 7 mM dimethyl α-ketoglutarate
Description: In FIG. 2(A), SF188 cells were cultured for 24 h in complete medium equilibrated with either 21% O2 (Normoxia) or 0.5% O2 (Hypoxia). Culture medium was then removed from cells and analyzed for glutamine levels which were compared to the glutamine levels in fresh medium. Data are the mean±SEM of 3 independent experiments. […] Cells were cultured in complete medium equilibrated with 0.5% O2 for 24 h, followed by an additional 48 h at 0.5% O2 in either complete medium (+Gln), glutamine-deficient medium (−Gln), or glutamine-deficient medium supplemented with 7 mM dimethyl α-ketoglutarate (−Gln+αKG). All medium was pre-conditioned in 0.5% O2. Cell viability was determined by trypan blue dye exclusion. Data are the mean and range from 2 independent experiments. FIG. 2(C) depicts a model of the pathways for cit+4 and cit+5 production from [U-^13C]glutamine (glutamine+5). […] Cells were cultured for 24 h as in (A), followed by 4 h of culture in glutamine-deficient medium supplemented with 4 mM [U-^13C]glutamine. ^13C enrichment in cellular citrate was quantitated with GC-MS. […]
SF188 and RCC4 cells were cultured in Dulbecco's Modified Eagle's Medium (DMEM; Invitrogen 11965), 10% fetal bovine serum (FBS; Gemini Biosystems), 100 units/ml Penicillin, 100 ug/ml Streptomycin, 25 mM glucose, and 6 mM L-glutamine. […] Viability was determined by trypan blue exclusion. […]

COC(=O)CCC(=O)C(=O)OC [dimethyl α-ketoglutarate] was tested. Which “cell viability upon glutamine withdrawal” value did it give?
The value was “rescued the defect in cell viability”.
